Experimental data: patent US8476287B2, “3-hydroxy-5-arylisothiazole derivative” (Mochida Pharmaceutical Co., Ltd., priority 2009, dated 2013)

target: T1, GPR40 of human origin (Homo sapiens, UniProt O14842); test: Agonist action on GPR40 of human origin (Ca2+ fluorescence in CHO cells); format: cell-based; conditions: CHO cell strain stably expressing GPR40 of human origin; Ca2+ concentration fluctuation, fluorescent calcium indicator
T1 construct: expressed in transfected cells
Experimental: A CHO cell strain stably expressing GPR40 of human origin was used to determine the agonist action of a subject compound. This cell strain was seeded in a clear bottom 96 well plate at 4×10^4 cells/100 μL/well. The cell strain was cultured in a CO2 incubator overnight using a Ham's F-12 medium containing a 10% fetal bovine serum, 100 U/mL penicillin, 0.1 mg/mL streptomycin, and 400 μg/mL Geneticin. Calcium 4 Assay Kit (Molecular Devices) was used as a fluorescent calcium indicator. One mL of 77 mg/mL probenecid (Invitrogen) was added to 100 mL of a calcium indicator solution to prepare a solution (loading solution) mixed with a 20 mM HEPES-containing Hanks' balanced salt solution (HBSS) in equal proportions. 200 μL of the loading solution was added to the cells from which the culture solution was removed, and the cells were cultured in a CO2 incubator for 1 hour. The subject compound was diluted with a 20 mM HEPES-containing HBSS and was added to the cells by 50 μL, and the fluctuation of the Ca^2+ concentration was measured by an intracellular ion analyzer. The EC50 value of the subject compound was calculated using the dose-response curve of fluorescence intensity variation.

T1 sequence (O14842 whole entry): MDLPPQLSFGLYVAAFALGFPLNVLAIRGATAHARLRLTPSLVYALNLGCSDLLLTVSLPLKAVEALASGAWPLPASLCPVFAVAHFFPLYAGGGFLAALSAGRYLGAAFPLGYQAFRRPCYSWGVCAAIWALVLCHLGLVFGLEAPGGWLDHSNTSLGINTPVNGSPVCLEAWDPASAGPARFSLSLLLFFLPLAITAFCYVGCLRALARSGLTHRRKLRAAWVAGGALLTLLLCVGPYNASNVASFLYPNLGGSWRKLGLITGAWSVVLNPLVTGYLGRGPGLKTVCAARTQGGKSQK

EC50	SMILES
< 300 nM	[O-][s+]1nc(O)cc1-c1ccc(OCc2cccc(Cl)c2)cc1 (single isomer, unassigned) [Example 89, 5-[4-[(3-chlorophenyl)methoxy]phenyl]isothiazol-3-ol 1-oxide(A)]
300 to 3000 nM	[O-][s+]1nc(O)cc1-c1ccc(OCc2cccc(N3CCC(F)(F)CC3)c2)cc1 (single isomer, unassigned) [Example 93, 5-[4-[[3-(4,4-difluoropiperidin-1-yl)phenyl]methoxy]phenyl]isothiazol-3-ol 1-oxide(A)]
300 to 3000 nM	[O-][s+]1nc(O)cc1-c1ccc(OCc2cccc3c2OCC3)cc1 (single isomer, unassigned) [Example 95, 5-[4-(2,3-dihydro-1-benzofuran-7-ylmethoxy)phenyl]isothiazol-3-ol 1-oxide(A)]
< 300 nM	Cc1cccc(C)c1-c1cccc2c1CC[C@H]2Oc1ccc(-c2cc(O)n[s+]2[O-])cc1 (single isomer, unassigned) [Example 107]
< 300 nM	[O-][s+]1nc(O)cc1-c1ccc(O[C@@H]2CCc3c(C4CC4)cccc32)cc1 (single isomer, unassigned) [Example 109]
< 300 nM	[O-][s+]1nc(O)cc1-c1ccc(O[C@@H]2CCc3c(-c4cccnc4)cccc32)cc1 (single isomer, unassigned) [Example 111]
300 to 3000 nM	[O-][s+]1nc(O)cc1-c1ccc(O[C@@H]2CCc3c(-c4cccnc4C(F)(F)F)cccc32)cc1 (single isomer, unassigned) [Example 117]
< 300 nM	[O-][s+]1nc(O)cc1-c1ccc(O[C@@H]2CCc3c(-c4ccc(N5CCCCC5)nc4)cccc32)cc1 (single isomer, unassigned) [Example 118]
300 to 3000 nM	CC1(C)CC=C(c2cccc3c2CC[C@H]3Oc2ccc(-c3cc(O)n[s+]3[O-])cc2)CC1 (single isomer, unassigned) [Example 120]
< 300 nM	Cc1nc(OCCC(C)(C)O)ccc1-c1cccc2c1CC[C@H]2Oc1ccc(-c2cc(O)n[s+]2[O-])cc1 (single isomer, unassigned) [Example 135]
< 300 nM	Cc1cc(OCCCS(C)(=O)=O)cc(C)c1-c1cccc2c1CC[C@H]2Oc1ccc(-c2cc(O)n[s+]2[O-])cc1 (single isomer, unassigned) [Example 138]
< 300 nM	CCOCCOc1cc(C)c(-c2cccc3c2CC[C@H]3Oc2ccc(-c3cc(O)n[s+]3[O-])cc2)c(C)c1 (single isomer, unassigned) [Example 139]
300 to 3000 nM	[O-][s+]1nc(O)cc1-c1ccc(OCc2cccc(Oc3ccccc3)c2)cc1 (stereo not shown) [Example 2, 5-(4-((3-phenoxyphenyl)methoxy)phenyl)isothiazol-3-ol 1-oxide]
300 to 3000 nM	[O-][s+]1nc(O)cc1-c1ccc(OC2CCc3cc(Cl)ccc32)cc1 (stereo not shown) [Example 6, 5-(4-(5-chloro-2,3-dihydro-1H-inden-1-yloxy)phenyl)isothiazol-3-ol 1-oxide]
< 300 nM	Cc1cccc(C)c1-c1cccc(COc2ccc(-c3cc(O)n[s+]3[O-])cc2)c1 (stereo not shown) [Example 8, 5-(4-((3-(2,6-dimethylphenyl)phenyl)methoxy)phenyl)isothiazol-3-ol 1-oxide]
300 to 3000 nM	Cc1cccc(C)c1-c1cccc(COc2ccc(C3=CC(O)=NS3(=O)=O)cc2)c1 [Example 9, 5-(4-((3-(2,6-dimethylphenyl)phenyl)methoxy)phenyl)isothiazol-3-ol 1,1-dioxide]
< 300 nM	CCOCCOc1cc(C)c(-c2cccc(COc3ccc(-c4cc(O)n[s+]4[O-])cc3)c2)c(C)c1 (stereo not shown) [Example 17, 5-(4-((3-(2,6-dimethyl-4-(2-ethoxyethoxy)phenyl)phenyl)methoxy)phenyl)isothiazol-3-ol 1-oxide(A)]
< 300 nM	CCOCCOc1cc(C)c(-c2cccc(COc3ccc(-c4cc(O)n[s+]4[O-])cc3)c2)c(C)n1 (stereo not shown) [Example 19, 5-(4-((3-(2,4-dimethyl-6-(2-ethoxyethoxy)pyridin-3-yl)phenyl)methoxy)phenyl)isothiazol-3-ol 1-oxide(A)]
< 300 nM	CCOCCOc1cc(C)c(-c2cccc(COc3ccc(-c4cc(O)n[s+]4[O-])cc3)c2)c(C)c1F (stereo not shown) [Example 22, 5-(4-((3-(2,6-dimethyl-4-(2-ethoxyethoxy)-3-fluorophenyl)phenyl)methoxy)phenyl)isothiazol-3-ol 1-oxide(A)]
< 300 nM	Cc1cc(OCCCS(C)(=O)=O)cc(C)c1-c1cccc(COc2ccc(-c3cc(O)n[s+]3[O-])cc2)c1C (stereo not shown) [Example 23, 5-(4-((3-(2,6-dimethyl-4-(3-(methylsulfonyl)propoxy)phenyl)-2-methylphenyl)methoxy)phenyl)isothiazol-3-ol 1-oxide(A)]
< 300 nM	Cc1cc(OCCCS(C)(=O)=O)nc(C)c1-c1cccc(COc2ccc(-c3cc(O)n[s+]3[O-])cc2)c1 (stereo not shown) [Example 24, 5-(4-((3-(2,4-dimethyl-6-(3-(methylsulfonyl)propoxy)pyridin-3-yl)phenyl)methoxy)phenyl)isothiazol-3-ol 1-oxide(A)]
< 300 nM	Cc1cc(OCCCS(C)(=O)=O)c(F)c(C)c1-c1cccc(COc2ccc(-c3cc(O)n[s+]3[O-])cc2)c1 (stereo not shown) [Example 27, 5-(4-((3-(2,6-dimethyl-3-fluoro-4-(3-(methylsulfonyl)propoxy)phenyl)phenyl)methoxy)phenyl)isothiazol-3-ol 1-oxide(A)]
< 300 nM	Cc1cc(OC2CCS(=O)(=O)CC2)cc(C)c1-c1cccc(COc2ccc(-c3cc(O)n[s+]3[O-])cc2)c1 (stereo not shown) [Example 28, 5-(4-((3-(2,6-dimethyl-4-((1,1-dioxidetetrahydro-2H-thiopyran-4-yl)oxy)phenyl)phenyl)methoxy)phenyl)isothiazol-3-ol 1-oxide(A)]
< 300 nM	Cc1cc(OC2CCS(=O)(=O)CC2)cc(C)c1-c1cccc(COc2ccc(-c3cc(O)n[s+]3[O-])cc2)c1C (stereo not shown) [Example 29, 5-(4-((3-(2,6-dimethyl-4-((1,1-dioxidetetrahydro-2H-thiopyran-4-yl)oxy)phenyl)-2-methylphenyl)methoxy)phenyl)isothiazol-3-ol 1-oxide(A)]

SMILES	EC50
Cc1cc(OCCC(C)(C)O)ncc1-c1cccc(COc2ccc(-c3cc(O)n[s+]3[O-])cc2)c1C (stereo not shown) [Example 10, 5-(4-((3-(6-(3-hydroxy-3-methylbutoxy)-4-methylpyridin-3-yl)-2-methylphenyl)methoxy)phenyl)isothiazol-3-ol 1-oxide]	< 300 nM
Cc1nc(OCCC(C)(C)O)ccc1-c1cccc(COc2ccc(-c3cc(O)n[s+]3[O-])cc2)c1C (stereo not shown) [Example 11, 5-(4-((3-(6-(3-hydroxy-3-methylbutoxy)-2-methylpyridin-3-yl)-2-methylphenyl)methoxy)phenyl)isothiazol-3-ol 1-oxide]	< 300 nM
Cc1cc(OCCC(C)(C)O)nc(C)c1-c1cccc(COc2ccc(-c3cc(O)n[s+]3[O-])cc2)c1C (stereo not shown) [Example 12, 5-(4-((3-(2,4-dimethyl-6-(3-hydroxy-3-methylbutoxy)pyridin-3-yl)-2-methylphenyl)methoxy)phenyl)isothiazol-3-ol 1-oxide]	< 300 nM
Cc1cc(OCCC(C)(C)O)cc(C)c1-c1cccc(COc2ccc(-c3cc(O)n[s+]3[O-])cc2)c1C (stereo not shown) [Example 13, 5-(4-((3-(2,6-dimethyl-4-(3-hydroxy-3-methylbutoxy)phenyl)-2-methylphenyl)methoxy)phenyl)isothiazol-3-ol 1-oxide]	< 300 nM
